Test results from paper PMC7528119, “The rapid “teabag” method for high-end purification of membrane proteins” (Scientific Reports, 2020).

Biological target: T1, KCC2 (Monodelphis domestica, UniProt F6WQ48)
T1 construct: gene SLC12A5; N-terminal His and FLAG tag
T1 sequence (F6WQ48 1-1115): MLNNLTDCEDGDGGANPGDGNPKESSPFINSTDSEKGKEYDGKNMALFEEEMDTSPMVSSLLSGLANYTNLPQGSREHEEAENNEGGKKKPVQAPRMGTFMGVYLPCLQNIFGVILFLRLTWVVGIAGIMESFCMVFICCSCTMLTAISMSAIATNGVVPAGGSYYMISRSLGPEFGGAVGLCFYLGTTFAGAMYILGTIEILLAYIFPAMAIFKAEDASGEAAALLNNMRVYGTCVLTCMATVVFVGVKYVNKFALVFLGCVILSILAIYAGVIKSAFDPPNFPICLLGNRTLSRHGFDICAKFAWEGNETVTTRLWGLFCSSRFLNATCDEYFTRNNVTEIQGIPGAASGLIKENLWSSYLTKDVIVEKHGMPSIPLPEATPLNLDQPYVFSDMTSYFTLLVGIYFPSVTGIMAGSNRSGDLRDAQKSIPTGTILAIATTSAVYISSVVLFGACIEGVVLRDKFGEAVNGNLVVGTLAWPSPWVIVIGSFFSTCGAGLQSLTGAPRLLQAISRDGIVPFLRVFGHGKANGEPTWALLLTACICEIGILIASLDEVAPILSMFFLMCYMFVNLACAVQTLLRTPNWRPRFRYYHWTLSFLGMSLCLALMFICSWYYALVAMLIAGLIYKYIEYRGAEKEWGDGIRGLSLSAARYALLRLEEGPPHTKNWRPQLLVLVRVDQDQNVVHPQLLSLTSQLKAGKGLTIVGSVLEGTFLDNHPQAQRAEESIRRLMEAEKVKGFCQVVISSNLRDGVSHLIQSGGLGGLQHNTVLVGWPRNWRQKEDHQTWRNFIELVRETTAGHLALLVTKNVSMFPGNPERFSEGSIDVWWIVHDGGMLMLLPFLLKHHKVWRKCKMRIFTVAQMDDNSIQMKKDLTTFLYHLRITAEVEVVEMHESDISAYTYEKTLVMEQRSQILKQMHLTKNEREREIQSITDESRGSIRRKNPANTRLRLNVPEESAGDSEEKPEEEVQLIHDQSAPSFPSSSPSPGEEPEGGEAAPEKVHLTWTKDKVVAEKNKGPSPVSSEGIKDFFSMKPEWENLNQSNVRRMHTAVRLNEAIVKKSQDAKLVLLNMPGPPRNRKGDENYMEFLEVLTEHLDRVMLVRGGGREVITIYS
Assay: SPR steady-state affinity on covalently immobilized KCC2
Format: binding

Kd: 750 ± 250 nM
Compound: Cc1csc(N(C(=O)CSc2ccc(-c3ccccc3)nn2)C2CC2)n1 [VU0463271]
